Each structure is given as a SMILES string. Where a name gives a salt, the structure may show the parent alone.

The text below walks through data of PMC9000710, “Synthesis and Hemostatic Activity of New Amide Derivatives” (Molecules, 2022).

The nature of data set [1]: Hemolysis assay (stability of erythrocytes). The data set is classed as cell-based, human. The following applies: male, human, heparinized whole blood diluted with saline (erythrocytes); for hemolysis at 45 min, 5 mg/L / hemolysis at 120 min, 5 mg/L / hemolysis at 240 min, 5 mg/L: c 5 mg/L. On the procedure: Heparinized whole blood was used from a healthy volunteer. The whole blood (10 mL) was diluted with saline solution (90 mL). For each UV-Vis measurement, 2.5 mL of diluted blood was used. For each blood sample, 1 mL of a saline solution containing hydrochlorides 1–8 at concentrations of 5, 50, and 500 mg/L was added. As a control were used blood samples with the addition of 1% solution of DMSO in saline and 1% solution of SDS in saline. In all cases, the measurements were repeated twice for each concentration. […] The cells were centrifuged, and the absorbance of the supernatant, which contained plasma and lysed erythrocytes, was measured at 540 nm. The percentage of lysis was calculated from a standard curve of lysed erythrocytes treated with SDS [52].

Data set [2] has as its system human blood plasma. Kind of data set: Prothrombin time (PT) clotting assay. The data set is classed as biochemical. The procedure: (§1) Human blood plasma was isolated from fresh buffy coats (collected onto the citrate-dextrose solution—ACD) purchased from the Regional Centre of Blood Donation and Blood Treatment in Lodz, Poland. In the isolation procedure, the buffy coats (60 mL units) were divided into volumes of 10 mL and centrifuged (4000 rpm/15 min) in 15 mL tubes. Next, 1 mL solutions of each amide 1–8 were prepared in distilled water at concentrations of 10, 25, and 50 mg/L. Then, 450 μL of plasma and 50 μL of each amide at the tested concentrations were placed into 1.5 mL vials. The vials were vortexed (Vortex Biosan V-1 plus), incubated at 37 °C on a thermoblock (Dry Block Thermostat Biosan TDB-120), and analyzed using a Kselmed K-3002 OPTIC coagulometer (Grudziądz, Poland), based on the manufacturer’s protocols (described below). The control sample was native blood plasma, untreated with any of the examined substances.
Fifty microliters of control plasma and plasma samples treated with the amides were transferred to measuring cuvettes and placed in the thermoblock module (37 °C) of a coagulometer (KSELMED, K-3002 Optic). Then, 100 μL of Dia-PT reagent (DIAGON Kft. Hungary; cat. no. 81100) was added. Measurements were started immediately.

The test system of data set [3] is human blood plasma. Kind of data set: Activated partial thromboplastin time (aPTT) clotting assay. It counts as biochemical. The procedure:
as §1
Fifty microliters of control plasma and plasma samples treated with the amides were transferred to measuring cuvettes and placed in the thermoblock module (37 °C) of the coagulometer (KSELMED, K-3002 Optic). Then, 50 μL of Dia-APTT reagent (DIAGON Kft. Hungary; cat. no. 72048) was added. The mixture was incubated for 180 s at 37 °C. Finally, 50 μL of reagent Dia-CaCl2 (DIAGON Kft. Hungary; cat. no. 41192) was added. Measurements were started immediately.

The test system of data set [4] is human blood plasma. The data set is described as follows: Thrombin time (TT) clotting assay. The data set is classed as biochemical. The procedure:
as §1
Both 100 μL of control plasma and plasma samples treated with the amides were transferred to measuring cuvettes, which were placed in the thermoblock module (37 °C) of the coagulometer (KSELMED K-3002 Optic). Then, 100 μL of thrombin solution (4.5 U/mL, in 0.9% NaCl; Biomed, Lublin, Poland) was added to the cuvette. Measurements were started immediately.

Data set [5] relates to human blood plasma. Kind of data set: Clot formation and fibrinolysis (CFF) assay. It counts as biochemical. The following applies: for Amax (maximum of fibrin clot absorbance at 360 nm) / VmaxC (of Fibrin Polymerization) / VmaxF (of Fibrin Clot Lysis): control plasma assumed as 100%, mean ± SD, n = 5–7; for decrease of VmaxF: concentration not given. The source says:
The CFF assay enables analysis of both the blood plasma coagulation process and fibrinolysis efficiency. The thrombin enzyme in the reagent mixture initiates blood plasma fibrinogen polymerization, leading to an increase in absorbance in the sample until the maximal absorbance (Amax) is attained. The fibrinolytic activity of blood plasma is induced by the tissue-type plasminogen activator (t-PA). The activation of fibrinolysis in the tested samples leads to fibrin clot degradation and decreases the absorbance to the baseline.
Figure 11 An exemplary curve of blood plasma coagulation and clot lysis recorded during the clot formation and fibrinolysis (CFF) assay. The first step in the CFF test involves activation of the blood plasma coagulation cascade and fibrin clot formation (1). It is characterized by the maximal velocity of the fibrin polymerization parameter (VmaxC). The maximal absorbance (Amax) peak corresponds to the fibrin stabilization phase and is an indicator of fibrin clot thickness (2). The third step of the CFF assay covers the activation of fibrinolytic mechanisms and fibrin clot degradation (3) and is described by the maximal velocity of clot lysis (VmaxF).
Thrombin was purchased from BioMed (Lublin, Poland). A tissue-type plasminogen activator (Actilyse®) was purchased from Boehringer Ingelheim, Ingelheim am Rhein, Germany. Kinetic measurements were executed using a SpectrostarNano microplate spectrophotometer (BMG LabTech, Ortenberg, Germany).
Measurements were performed using a kinetic model, as described in our previous work. Briefly, blood plasma was preincubated with the examined substances (at final concentrations of 10, 25, and 50 mg/L) for 15 min at 37 °C. Then, 100 μL of blood plasma was added to microtiter plate wells, which was followed by 200 μL of the reagent mixture (0.75 U/mL thrombin, 225 ng/mL t-PA and 7.5 mM CaCl2) suspended in tris-buffered saline (0.05 M TBS, 0.9% NaCl; pH 7.4). Measurements of absorbance changes were started immediately and continued for 60 min at 37 °C, λ = 360 nm. The following parameters were used to determine the effects of the examined substances on the coagulation and fibrinolytic properties of the blood plasma: the maximal velocity of fibrinogen polymerization (VmaxC), which is an indicator of the plasma coagulation efficiency; the maximal absorbance (Amax), which is an indicator of the fibrin clot stabilization and its thickness; the maximal velocity of clot lysis (VmaxF), which is an indicator of blood plasma fibrinolytic activity.

In general, melting point refers to the temperature, or range, at which the solid turns liquid. The molecule `NCCCCCC(=O)NCC1CCC(C(=O)O)CC1` (stereo not shown) (as salt: hydrochloride) [Amide 3, 6-((((1s,4s)-4-Carboxycyclohexyl)methyl)amino)-6-oxohexan-1-aminium chloride] gave a melting point of 195 to 197 °C.

In turn, `NCC(=O)NCC1CCC(C(=O)O)CC1` (stereo not shown) (as salt: hydrochloride) [Amide 7, 2-((((1s,4s)-4-Carboxycyclohexyl)methyl)amino)-2-oxoethanaminium chloride] yielded a melting point of 221 to 224 °C.

In data set [1] (45 min), `Cl.NCCCCCC(=O)NCCCCCC(=O)O` [Amide 4, 6-(6-Aminohexanamido)hexanoic acid hydrochloride] returned a hemolysis at 45 min, 5 mg/L of 1%. The same molecule displayed a hemolysis at 120 min, 5 mg/L in data set [1] (120 min) of 0.74%. Moreover, in data set [1] (240 min), the hemolysis at 240 min, 5 mg/L is 0.27%. In addition, the hemolysis at 45 min, 50 mg/L in data set [1] (c 50 mg/L, 45 min) worked out at 0%. The molecule also registered a hemolysis at 120 min, 50 mg/L in data set [1] (c 50 mg/L, 120 min) of 0.71%. Also, the hemolysis at 240 min, 50 mg/L in data set [1] (c 50 mg/L, 240 min) came out at 0.32%. Also, the hemolysis at 45 min, 500 mg/L in data set [1] (c 500 mg/L, 45 min) came to 0.38%. In addition, in data set [1] (c 500 mg/L, 120 min), the hemolysis at 120 min, 500 mg/L came to 0.21%. The molecule further displayed a hemolysis at 240 min, 500 mg/L in data set [1] (c 500 mg/L, 240 min) of 0.22%. Also, the “PT Time [% of Control]” value in data set [2] (c 10 mg/L) is 97.3 ± 4.2 % of Control; in data set [2] (c 25 mg/L), 95.4 ± 2.3 % of Control; in data set [2] (c 50 mg/L) it was 93.7 ± 3.0 % of Control. The “prothrombin time, effect versus control in words” value in data set [2] (two higher concentrations (25 and 50 mg/L)) is “significantly decreased”. The “aPTT Time [% of Control]” value in data set [3] (c 10 mg/L) is 98.1 ± 5.2 % of Control; in data set [3] (c 25 mg/L) it was 97.4 ± 5.4 % of Control; in data set [3] (c 50 mg/L), 99.9 ± 6.0 % of Control. The “TT Time [% of Control]” value is reported as 96.3 ± 6.9 % of Control in data set [4] (c 10 mg/L), 95.5 ± 8.8 % of Control in data set [4] (c 25 mg/L) and 97.6 ± 5.0 % of Control in data set [4] (c 50 mg/L). Besides, the figures for the “Amax (maximum of fibrin clot absorbance at 360 nm)” value in data set [5] (10 mg/L), in data set [5] (25 mg/L) and in data set [5] (50 mg/L) were 115.37 ± 8.73 %, 114.07 ± 15.71% and 109.29 ± 9.02 %, respectively. Further, the “VmaxC (of Fibrin Polymerization)” value is reported as 107.93 ± 7.23 % in data set [5] (10 mg/L), 105.85 ± 7.85% in data set [5] (25 mg/L) and 105.89 ± 5.64% in data set [5] (50 mg/L). The “VmaxF (of Fibrin Clot Lysis)” value in data set [5] (10 mg/L) is on record as 81.36 ± 21.07 %; in data set [5] (25 mg/L) it was 70.35 ± 16.30 %; in data set [5] (50 mg/L), 55.95 ± 10.51 %. Moreover, in data set [5], the “decrease of VmaxF” value is listed as 30–40%.

`NCC(=O)NCC1CCC(C(=O)O)CC1` (stereo not shown) [Amide 7, 2-((((1s,4s)-4-Carboxycyclohexyl)methyl)amino)-2-oxoethanaminium chloride]: the hemolysis at 45 min, 5 mg/L in data set [1] (45 min) came out at 0%. The molecule further gave a hemolysis at 120 min, 5 mg/L in data set [1] (120 min) of 0.21%. This molecule also gave a hemolysis at 240 min, 5 mg/L in data set [1] (240 min) of 0.21%. Further, the hemolysis at 45 min, 50 mg/L in data set [1] (c 50 mg/L as printed in the third concentration block of amides 7 and 8, 45 min) was 0%; in data set [1] (c 50 mg/L, 45 min), 0.41%. Besides, the hemolysis at 120 min, 50 mg/L in data set [1] (c 50 mg/L as printed in the third concentration block of amides 7 and 8, 120 min) came out at 0.23%; in data set [1] (c 50 mg/L, 120 min), 0.97%. In addition, the hemolysis at 240 min, 50 mg/L in data set [1] (c 50 mg/L as printed in the third concentration block of amides 7 and 8, 240 min) came to 0.38%; in data set [1] (c 50 mg/L, 240 min), 0.64%. Moreover, in data set [1] (c 500 mg/L, 45 min), the hemolysis at 45 min, 500 mg/L came to 0%. The “PT Time [% of Control]” value was 95.4 ± 7.4 % of Control in data set [2] (c 10 mg/L), 94.3 ± 9.7 % of Control in data set [2] (c 25 mg/L) and 95.3 ± 8.3 % of Control in data set [2] (c 50 mg/L). The “aPTT Time [% of Control]” value in data set [3] (c 10 mg/L) is on record as 98.1 ± 4.6 % of Control; in data set [3] (c 25 mg/L), 99.3 ± 3.3 % of Control; in data set [3] (c 50 mg/L) it was 100.6 ± 4.9 % of Control. Also, the “TT Time [% of Control]” value in data set [4] (c 10 mg/L) is on record as 97.2 ± 3.3 % of Control; in data set [4] (c 25 mg/L) it was 97.5 ± 2.5 % of Control; in data set [4] (c 50 mg/L), 96.9 ± 1.7 % of Control. The “Amax (maximum of fibrin clot absorbance at 360 nm)” value is 115.64 ± 11.61 % in data set [5] (10 mg/L), 120.06 ± 25.63 % in data set [5] (25 mg/L) and 113.54 ± 13.76 % in data set [5] (50 mg/L). Moreover, the results for the “VmaxC (of Fibrin Polymerization)” value in data set [5] (10 mg/L), in data set [5] (25 mg/L) and in data set [5] (50 mg/L) were 106.86 ± 9.49%, 104.39 ± 8.60% and 111.45 ± 8.07 %, respectively. Also, the “VmaxF (of Fibrin Clot Lysis)” value in data set [5] (10 mg/L) was found to be 66.18 ± 21.32 %; in data set [5] (25 mg/L) it was 62.99 ± 16.99 %; in data set [5] (50 mg/L) it was 87.27 ± 8.04%. The “decrease of VmaxF” value in data set [5] is recorded as 30–40%. For the same molecule, the “Amax parameter, effect in words” value in data set [5] (full range of tested concentrations (10–50 µg/mL)) is reported as “significantly higher”.
